One series deals with arterial thrombosis. The experiment in a line: Electrical injury model (EIM) of arterial thrombosis in rabbits. The format is in vivo, rabbit. How it is done: Rabbits were randomized into the following eleven groups with the treatments initiated 30 min before electrical injury.
Electrical injury generated occlusion in 60% of the rabbits treated with saline within 2 h. Average thrombosis weight was 7.8 mg.

Series [1] relates to thrombin generation in human platelet rich plasma. The experiment in a line: Thrombin generation by calibrated automated thrombography (CAT) in ADP-activated human PRP. The format is cell-based. Particulars: 20 uM ADP-activated human platelets, equal molar concentrations. How it is done: Shown are thrombograms of nanomolar thrombin that were generated in human platelet rich plasma activated with […].
Thrombin generation in citrated human platelet rich plasma (PRP) was quantified by calibrated automated thrombography (CAT) using the Thrombinoscope system (Synapse), according to methods developed by Hemker et al. Aliquots of PRP were incubated with agents for 15 min at room temperature, and then for 5 min at 37° C. in wells of 96-well plates. Thrombin generation was initiated by addition of 0.5 pM tissue factor and CaCl2 to 16.7 mM and monitored in a microtiter plate fluorometer (Fluoroskan Ascent, Thermo Electron Corp., Vantaa, Finland). Thrombograms (nM thrombin generated vs. time) were generated using the Thrombinoscope software, as were key thrombin generation parameters: lag time to onset of thrombin generation (min), peak thrombin concentration (nM), time to peak thrombin (min), and endogenous thrombin potential (ETP; integrated area under the thrombogram curve).
The effects of APT102, annexin V, APT102+annexin V, and APT402 at equal molar concentrations on thrombin generation from 20 uM ADP-activated human platelets were compared using CAT assays (FIG. 3). […] These features were mimicked by APT402.

The conditions of series [2]: comparison value for annexin V; cited from earlier work.
The mark [3] stands for this setting: rabbit EIM, group doses of the 2nd table.

In the case of `COC(=O)[C@H](c1ccccc1Cl)N1CCc2sccc2C1` [clopidogrel, Clopidogrel, reference compound], the “bleeding time (BT)” value in the series with arterial thrombosis (rabbit, in vivo) is recorded as “prolonged”.

Take `CC[C@H](C)[C@H](NC(=O)[C@H](CCC(=O)O)NC(=O)[C@H](CCC(=O)O)NC(=O)[C@H](Cc1ccccc1)NC(=O)[C@H](CC(=O)O)NC(=O)CNC(=O)[C@H](CC(N)=O)NC(=O)CNC(=O)CNC(=O)CNC(=O)CNC(=O)[C@@H]1CCCN1C(=O)[C@H](CCCNC(=N)N)NC(=O)[C@@H]1CCCN1C(=O)[C@H](N)Cc1ccccc1)C(=O)N1CCC[C@H]1C(=O)N[C@@H](CCC(=O)O)C(=O)N[C@@H](CCC(=O)O)C(=O)N[C@@H](Cc1ccc(O)cc1)C(=O)N[C@@H](CC(C)C)C(=O)O` [bivalirudin, Bivalirudin, reference compound]: in the series with arterial thrombosis (setting [3]), the partial thromboplastin time result is on record as “increased” and the prothrombin time entry was “increased”. Further, in the series with arterial thrombosis (rabbit EIM, group doses of the 2nd table, BT measurement ceiling 5 min), the “bleeding time (BT)” value was “prolonged”.

On to “annexin V: protein that binds phosphatidyl serine on activated platelets in competition with prothrombinase complex”, for which, in series [1], the peak thrombin concentration entry is listed as “modestly decreasing” and the “time to peak thrombin” value is reported as “significantly increased”. Besides, in series [2], the distribution half-life was 5 min and the elimination half-life is 20 min.

Consider `CCCSc1nc(N[C@@H]2C[C@H]2c2ccc(F)c(F)c2)c2nnn([C@@H]3C[C@H](OCCO)[C@@H](O)[C@H]3O)c2n1` [ticagrelor, reference compound], for which the “occlusion within 2 h” value in the series with arterial thrombosis (rabbit EIM, ticagrelor 10 mg/kg oral, bivalirudin 5 mg/kg IV bolus then 5 mg/kg/h) is “completely prevented occlusion”. In addition, in the series on arterial thrombosis (rabbit, in vivo), the “bleeding time (BT)” value is reported as “prolonged” and the partial thromboplastin time result is “increased”.

The record behind these values is patent US20230119254A1, “SYNERGISTIC AND TARGETING COMPOSITIONS FOR TREATMENT OF ARTERIAL AND VENOUS THROMBOSIS” (AstraZeneca AB, priority 2020, published 2023).
